Numbers after ± are expanded uncertainties.
Assay: molar heat capacity at constant pressure
Details: 298.15 K; 101.33 kPa; Liquid; Small sample (50 mg) DSC

Row | SMILES | molar heat capacity at constant pressure
1 | CCCCCC[C@@H](O)C/C=C\CCCCCCCC(=O)O [[R]-12-hydroxy-cis-9-octadecenoic acid] | 626.77 ± 63 J/K/mol
2 | CCCCCC[C@@H](O)CC=CCCCCCCCC(=O)OC [[R]-methyl 12-hydroxy-9-octadecenoate] | 696.53 ± 70 J/K/mol

Source: the NIST ThermoML archive (doi:10.1016/j.jct.2012.02.006)
